PubChem BioAssay (NCI)
Values joined by “and” are separate entries in the source; they are usually repeats but may differ in a detail not shown here. Identical values can stand only once.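 Cells were grown in 96-well plates and exposed to each compound for 48 hours at five concentrations; endpoints were interpolated linearly between bracketing concentrations, or set to the highest concentration if not reached. GI50 is the concentration that inhibits growth by half. The concentration for full growth arrest is given as TGI.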 Where a SMILES comes first, the peptide text is derived from it. [ ]: non-standard residue; d: D form. 2Nal = N[CH](Cc1ccc2ccccc2c1)C(=O)O

Experiments:
Experiment in all cases: DTP human tumour cell line panel, 48 h
A498 renal = test system: A498 renal
HL-60(TB) leukemia = test system: HL-60(TB) leukemia
786-0 renal = test system: 786-0 renal
TK-10 renal = test system: TK-10 renal
SF-295 CNS = test system: SF-295 CNS
SK-MEL-28 melanoma = test system: SK-MEL-28 melanoma
ACHN renal = test system: ACHN renal
OVCAR-8 ovarian = test system: OVCAR-8 ovarian
U251 CNS = test system: U251 CNS
HCT-116 colon = test system: HCT-116 colon

Compound	GI50 (A498 renal) [µM]	TGI (A498 renal) [µM]	GI50 (HL-60(TB) leukemia) [µM]	TGI (HL-60(TB) leukemia) [µM]	GI50 (786-0 renal) [µM]	TGI (786-0 renal) [µM]	GI50 (TK-10 renal) [µM]	TGI (TK-10 renal) [µM]	GI50 (SF-295 CNS) [µM]	TGI (SF-295 CNS) [µM]	GI50 (SK-MEL-28 melanoma) [µM]	TGI (SK-MEL-28 melanoma) [µM]	GI50 (ACHN renal) [µM]	TGI (ACHN renal) [µM]	GI50 (OVCAR-8 ovarian) [µM]	TGI (OVCAR-8 ovarian) [µM]	GI50 (U251 CNS) [µM]	TGI (U251 CNS) [µM]	GI50 (HCT-116 colon) [µM]	TGI (HCT-116 colon)
CC(=O)C1CCC2C3CC=C4CC(SC(=N)N)CCC4(C)C3CCC12C (stereo not drawn)	1.19	3.73	1.88	4.19	1.64	3.29	1.69	3.17	1.49	2.99										
N#Cc1c(N)nc(N2CCSCC2)c(C#N)c1-c1ccc(O)cc1	13.4	29.8	17	53.1	13.5	30.4	30.4	> 100	18.4	55.7	15.5	35	18.9	59	33.6	> 100	15	28.3		
COC(=O)C1=C(O)[C@H](C(=O)OC)[C@]2(O)[C@@H](C(=O)OC)[C@H]1C[C@@H](c1ccc(OC(=O)/C=C/c3ccco3)cc1)[C@@H]2C(=O)OC			13.9	75.1	11.8	30.6	47.1	> 100	19.6	65.2	29.1	> 100	14.4	28.7	42.4	> 100	10.3	23.8	4.9	17.6 µM
O=C(Nc1cccnc1)c1ccc2ccc3ccc(C(=O)Nc4cccnc4)nc3c2n1	0.214	0.553	0.132	> 100	0.206	> 100		> 100	0.252	> 100	0.324	> 100	0.145	> 100	0.231	> 100	0.0613	> 100		
O=C(O)CCSC(=O)Nc1ccccc1Cl		> 100				> 100		> 100		> 100		> 100		> 100		> 100		> 100		> 100 µM
CC(=O)O[C@H]1C(=O)[C@@]2(C)[C@H]([C@H](OC(=O)c3ccccc3)[C@@]3(O)C[C@H](O)C(C)=C1C3(C)C)[C@]1(OC(C)=O)CO[C@@H]1C[C@@H]2O				> 100		> 100		> 100		> 100		> 100		> 100		> 100		> 100		> 100 µM
COc1ccc(CNc2cnc3cc(N)cc(N)c3n2)cc1					17.2	31.6	27	64.2	21.9	55.9	58	> 100	17.2	32.2	19.7	39.8	17.2	32.5	19.4	40.8 µM
CC[C@]12C=CCN3CC[C@@]4(c5ccc(OC)cc5N(C)[C@H]4[C@@](O)(C(=O)OC)[C@@H]1OC(=O)CCC(=O)N[C@H](Cc1c[nH]c4ccccc14)C(=O)OC)[C@@H]32	9.29	30.8			3.08	> 100	13.5	29.4	15.8	39.5	2.21	5.44	13.4	52.7	7.78	35	8.08	24.9	3.02	> 100 µM
CCc1nc2cc(/C=C/C(=O)NO)ccc2c(=O)n1CCc1ccc(F)cc1	1.1	2.77	4.59	> 100	1.76	3.89	1.42	4.89	1.87	3.61	1.85	4.15	1.5	3.27			1.31	2.91	0.49	2.93 µM
CCOC(=O)c1c2cccccc2n2c(=O)cc(C)nc12		> 100		> 100		> 100		> 100		> 100		> 100		> 100		> 100		> 100		
O=C(c1ccccc1)c1c(CC(O)c2ccccc2)n(C(=O)c2ccccc2)c2ccccc12 (stereo not drawn)				> 100		> 100		> 100		> 100		> 100		> 100		> 100		> 100		> 100 µM
COc1ccc(/C=C2\CC(C)CC3C2=NN(c2ccccc2)C3c2ccc(OC)c(OC)c2)cc1OC (stereo not drawn)	14.5	72.7	2.76	8.7	5.24	37.3	5.78	> 100	3.59	57.6	4.87	18.3	4.48	48.6	6.78	> 100	3.92	15.3		
O=C(Nc1nc(-c2ccc(Cl)cc2)nc2c1sc(=S)n2-c1ccccc1)C(F)(F)F	1.77	7.8	> 100	> 100	1.67	3.27			1.71	4.01	6.01	> 100	1.81	3.56	4.21	21.1	3.23	9.87	2.63	8.04 µM
COC(=O)C(=O)C(C(=O)C=C(C)C)C(=O)C(=O)Nc1nc2ccc([N+](=O)[O-])cc2s1 (stereo not drawn)		91		> 100		> 100		> 100				> 100		> 100		> 100		> 100		> 100 µM
Cc1ccc(NC(=O)CC/C(CC(=O)C(C)(C)C)=N\Nc2ccc([N+](=O)[O-])cc2[N+](=O)[O-])cc1C						> 100		> 100		> 100		> 100		> 100		> 100		> 100		> 100 µM
Nc1nc(N)c(N=Nc2ccc(C(=O)O)c(O)c2)c(N)n1		> 100				> 100		> 100		> 100		> 100		> 100		> 100		> 100		> 100 µM
C=C1NC(=O)C(CC(C(=O)C(=O)Nc2c(C)cccc2C(C)(C)C)C(=O)c2ccc3ccccc3c2)C(=O)N1 (stereo not drawn)		> 100		> 100		> 100				> 100		> 100		> 100		> 100		> 100		> 100 µM

Compound	GI50 (A498 renal) [µM]	TGI (A498 renal) [µM]	GI50 (HL-60(TB) leukemia) [µM]	TGI (HL-60(TB) leukemia) [µM]	GI50 (786-0 renal) [µM]	TGI (786-0 renal) [µM]	GI50 (TK-10 renal) [µM]	TGI (TK-10 renal) [µM]	GI50 (SF-295 CNS) [µM]	TGI (SF-295 CNS) [µM]	GI50 (SK-MEL-28 melanoma) [µM]	TGI (SK-MEL-28 melanoma) [µM]	GI50 (ACHN renal) [µM]	TGI (ACHN renal) [µM]	GI50 (OVCAR-8 ovarian) [µM]	TGI (OVCAR-8 ovarian) [µM]	GI50 (U251 CNS) [µM]	TGI (U251 CNS) [µM]	GI50 (HCT-116 colon) [µM]	TGI (HCT-116 colon)
C/C(CCn1[nH]c(=O)ccc1=O)=N\Nc1ccc([N+](=O)[O-])cc1[N+](=O)[O-]		> 100		> 100		> 100		> 100		> 100		> 100		> 100		> 100				> 100 µM
C#CCN(N=O)C(=O)NCCCC(NC(C)=O)C(=O)NCc1ccccc1 (stereo not drawn)		> 100				> 100		> 100		> 100		> 100		> 100		> 100		> 100		> 100 µM
O=C(Nc1cccc(Cl)c1)c1cc(N=Nc2ccc([N+](=O)[O-])cc2Cl)ccc1O	1.94	4.51			2.93	8.27	2.24	6.92	1.49	3.22	2.88	10.9	2.3	6.46	3.04	18	1.93	7	2.81	8.25 µM
CC(C)CCC(=O)[C@@H](C)[C@H]1[C@@H](OC2OCC(O)C(O)C2NS(C)(=O)=O)C[C@H]2[C@@H]3CC=C4C[C@@H](O)CC[C@]4(C)[C@H]3CC[C@]12C (stereo partly drawn)	0.724	1.7			0.181	0.93	6.63	23.5	0.141	0.595	0.53	1.53	2.15	11.6	7.63	37.2	0.901	7.8	0.715	5.74 µM
CCOC(=O)NC(=O)c1cn(CCN2CCNCC2)c(=O)[nH]c1=O				> 100		> 100		> 100		> 100		> 100		> 100		> 100		> 100		> 100 µM
NNC(=O)N/N=C1\C(=O)N(c2nccs2)C(=O)C(=O)C1c1nc2ccccc2s1 (stereo not drawn)						> 100		> 100		> 100		> 100		> 100		> 100		> 100		> 100 µM
COc1cc(CC(C(=O)O)C(=O)O)c(OC)cc1CC(C(=O)O)C(=O)O		> 100		> 100		> 100		> 100		> 100						> 100		> 100		> 100 µM
Nc1ccc2c(c1)Oc1c(F)c(F)cc3c(=O)c(C(=O)O)cn-2c13		49.7		> 100		> 100		> 100				> 100				> 100		> 100		> 100 µM
COc1ccc2c(c1)C(=O)c1c-2n(CCCN)c(=O)c2cc(OC)c(OC)cc12	1.89	5.59	< 0.0245		0.146	0.445	1.45	2.99	< 0.01	1.04	8.19	29.1	0.0397	1.14			0.0491	1.63	0.0287	0.181 µM
O=C(O)CC1CC=C[C@H]2c3cc4c(cc3C(=O)NC12)OCO4 (stereo partly drawn)				> 75		> 75		> 75		> 75		> 75		> 75		> 75		> 75		> 75 µM
COc1ccc(/C=c2/sc3n(c2=O)NC(c2ccc(Cl)cc2)NN=3)cc1 (stereo not drawn)						> 100		> 100		> 100		> 100				> 100		> 100		> 100 µM
Cc1ccc(/C=C(\C#N)c2ccccc2)cc1		> 100				> 100		> 100		> 100		> 100		> 100		> 100		> 100		> 100 µM
Cc1nc(Nc2ccccc2)sc1C(=O)CC(=O)C(=O)NC12CC3CC(CC(C3)C1)C2				> 100		> 100		> 100		> 100		> 100		> 100		> 100		> 100		> 100 µM
CC(C)C(NC(=O)C(CCCCN)NC(=O)C(Cc1c[nH]c2ccccc12)NC(=O)C(Cc1ccc(O)cc1)NC(=O)C(CS)NC(=O)C(N)Cc1ccc2ccccc2c1)C(=O)NC(CS)C(=O)NC(C(N)=O)C(C)O (stereo not drawn) (H-[2Nal]CYWKVCT-NH2; configuration not given here)	> 100	> 100	> 100	> 100	> 100	> 100			> 100	> 100		> 100	> 100	> 100	> 100	> 100	> 100	> 100	2.52	> 12.5 µM and 10.9 µM
O=C(NN1C(=O)CSC12CCCC2)C(O)c1ccccc1 (stereo not drawn)	> 100	> 100			> 100	> 100	> 100	> 100	> 100	> 100	> 100	> 100	> 100	> 100	> 100	> 100	> 100	> 100	> 100	> 100 µM
COc1ccc(C[C@H](N)C(=O)N2C[C@@H](CO)C[C@@H](n3cnc4c(N(C)C)ncnc43)C2)cc1				> 100		> 100		> 100		> 100		> 100				> 100		> 100		> 100 µM
